Measurements taken from patent publication US11512268B2, “Storage-stable enzyme preparations, their production and use” (BASF SE, priority 2017, dated 2022).

Legend:
Lipolase = target: T1, Lipolase (Thermomyces lanuginosus, UniProt O59952); assay: storage stability of lipase (Lipolase activity, pNitrophenol-valerate substrate) in liquid formulations at 37° C.; assay type: biochemical, Thermomyces lanuginosa; conditions: Lipolase 0.4 wt %, storage at 37° C.
T1 construct: purchased Sigma-Aldrich
T1 sequence (O59952 23-291): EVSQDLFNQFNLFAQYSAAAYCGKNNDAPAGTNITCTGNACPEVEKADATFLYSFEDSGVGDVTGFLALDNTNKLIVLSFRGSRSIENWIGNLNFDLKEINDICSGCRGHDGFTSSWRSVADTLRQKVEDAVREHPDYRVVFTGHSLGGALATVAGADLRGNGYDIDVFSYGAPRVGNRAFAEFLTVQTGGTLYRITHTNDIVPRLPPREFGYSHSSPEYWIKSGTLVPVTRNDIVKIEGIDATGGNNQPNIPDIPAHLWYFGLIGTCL
Protocol: (§1) The storage stability of Lipase and Protease in water was assessed at 37° C.
(§2) Base test formulations were manufactured by making base formulations I to VI by mixing the components according to Table 1.
(§3) The respective salt (component (a)) or comparative compound was added, if applicable, to the respective base formulation in amounts as indicated in Table 1.
(§4) The amount of enzyme as provided in Table 1 refers to active protein. Either lipase or protease was added, depending on which enzyme activity was measured.
(§5) Lipolase® 100 L (CAS-No. 9001-62-1, EC-No. 232-619-9) was purchased from Sigma-Aldrich. Savinase® 16.0 L (CAS-No. 9014-01-1, EC-No. 232-752-2) was purchased from Sigma-Aldrich.
Lipolase activity at certain points in time as indicated in Table 2 was be determined by employing pNitrophenol-valerate (2.4 mM pNP-C5 in 100 mM Tris pH 8.0, 0.01% Triton X100) as a substrate. The absorption was measured at 20° C. every 30 seconds over 5 minutes at 405 nm. The slope (absorbance increase at 405 nm per minute) of the time dependent absorption-curve is directly proportional to the activity of the lipase.
The lipolytic activity values provided in Table 2 were calculated referring to the 100% value determined in the reference formulation at the time 0.
(§6) The nomenclature of formulations is as follows: the Roman number before the full stop characterizes the base formulation, the Arabian number the type of salt (A.# inventive salt (component (a)); C-(A.#) comparative compound). Zero (“0”): no salt, but diethylene glycol.

Savinase = target: T2, Savinase (Lederbergia lenta, UniProt P29600); assay: storage stability of protease (Savinase activity, Suc-AAPF-pNA substrate) in liquid formulations at 37° C.; assay type: biochemical; conditions: component (a) 2.5 wt %, Savinase 16.0 L 0.5 wt %, storage at 37° C.
T2 construct: purchased Sigma-Aldrich
T2 sequence (P29600 1-269): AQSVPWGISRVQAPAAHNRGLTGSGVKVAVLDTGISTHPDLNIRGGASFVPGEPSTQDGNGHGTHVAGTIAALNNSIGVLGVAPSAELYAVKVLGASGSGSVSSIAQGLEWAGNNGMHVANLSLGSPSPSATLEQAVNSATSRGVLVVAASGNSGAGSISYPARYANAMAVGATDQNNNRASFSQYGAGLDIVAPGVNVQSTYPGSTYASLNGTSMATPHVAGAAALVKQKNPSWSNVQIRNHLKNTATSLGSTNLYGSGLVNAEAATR
Protocol: as §1, §2, §3, §4, §5
Savinase activity at certain points in time as indicated in Table 3 was be determined by employing Succinyl-Ala-Ala-Pro-Phe-p-nitroanilide (Suc-AAPF-pNA, short AAPF) as substrate. pNA is cleaved from the substrate molecule by proteolytic cleavage, resulting in release of yellow color of free pNA which was determined by measuring OD405. Measurement were done at 20° C.
The proteolytic activity values provided in Table 3 were calculated referring to the 100% value determined in the reference formulation at the time 0.
as §6

[1] = base formulation I., component (a) 2.5 wt %, 1 d
[2] = base formulation I., component (a) 2.5 wt %, 3 d
[3] = base formulation I., component (a) 2.5 wt %, 6 d
[4] = base formulation I., component (a) 2.5 wt %, 10 d
[5] = base formulation I., component (a) 2.5 wt %, 15 d
[6] = base formulation I., component (a) 2.5 wt %, 20 d
[7] = base formulation I., component (a) 2.5 wt %, 25 d
[8] = base formulation I., component (a) 2.5 wt %, 30 d
[9] = base formulation I., component (a) 2.5 wt %, T0
[10] = base formulation IV., component (a) 4.0 wt %, 1 d
[11] = base formulation IV., component (a) 4.0 wt %, 3 d
[12] = base formulation IV., component (a) 4.0 wt %, 6 d
[13] = base formulation IV., component (a) 4.0 wt %, 10 d
[14] = base formulation IV., component (a) 4.0 wt %, 15 d
[15] = base formulation IV., component (a) 4.0 wt %, 20 d
[16] = base formulation IV., component (a) 4.0 wt %, 25 d
[17] = base formulation IV., component (a) 4.0 wt %, 30 d
[18] = base formulation IV., component (a) 4.0 wt %, T0

**Q.** With `C[N+](C)(C)CCO.C[N+](C)(C)CCO.O=C([O-])C(O)C(O)C(=O)[O-]` (stereo not drawn) [C-(A.16)] as the compound, how does the lipase activity (Lipolase; [1]) read?
**A.** 90%

**Q.** And the lipase activity (Lipolase; [2])?
**A.** 81%

**Q.** What about the lipase activity (Lipolase; [3]) of the same compound?
**A.** 68%

**Q.** What about the lipase activity (Lipolase; [4]) of the same compound?
**A.** 51%

**Q.** What about the lipase activity (Lipolase; [5]) of the same compound?
**A.** 40%

**Q.** And the lipase activity (Lipolase; [6])?
**A.** 34%

**Q.** And the lipase activity (Lipolase; [7])?
**A.** 25%

**Q.** And the lipase activity (Lipolase; [8])?
**A.** 24%

**Q.** What about the lipase activity (Lipolase; [9]) of the same compound?
**A.** 95%

**Q.** What about the lipase activity (Lipolase; [10]) of the same compound?
**A.** 90%

**Q.** And the lipase activity (Lipolase; [11])?
**A.** 81%

**Q.** What about the lipase activity (Lipolase; [12]) of the same compound?
**A.** 67%

**Q.** And the lipase activity (Lipolase; [13])?
**A.** 55%

**Q.** And the lipase activity (Lipolase; [14])?
**A.** 41%

**Q.** What about the lipase activity (Lipolase; [15]) of the same compound?
**A.** 34%

**Q.** And the lipase activity (Lipolase; [16])?
**A.** 28%

**Q.** What about the lipase activity (Lipolase; [17]) of the same compound?
**A.** 25%

**Q.** And the lipase activity (Lipolase; [18])?
**A.** 95%

**Q.** What about the lipase activity (Lipolase; base formulation V., component (a) 4.0 wt %, 1 d) of the same compound?
**A.** 92%

**Q.** What about the lipase activity (Lipolase; base formulation V., component (a) 4.0 wt %, 3 d) of the same compound?
**A.** 85%

**Q.** What about the lipase activity (Lipolase; base formulation V., component (a) 4.0 wt %, 6 d) of the same compound?
**A.** 70%

**Q.** What about the lipase activity (Lipolase; base formulation V., component (a) 4.0 wt %, 10 d) of the same compound?
**A.** 65%

**Q.** And the lipase activity (Lipolase; base formulation V., component (a) 4.0 wt %, 15 d)?
**A.** 58%

**Q.** What about the lipase activity (Lipolase; base formulation V., component (a) 4.0 wt %, 20 d) of the same compound?
**A.** 49%

**Q.** What about the lipase activity (Lipolase; base formulation V., component (a) 4.0 wt %, 25 d) of the same compound?
**A.** 37%

**Q.** What about the lipase activity (Lipolase; base formulation V., component (a) 4.0 wt %, 30 d) of the same compound?
**A.** 28%

**Q.** And the lipase activity (Lipolase; base formulation V., component (a) 4.0 wt %, T0)?
**A.** 96%

**Q.** What about the protease activity (Savinase; base formulation I., 1 d) of the same compound?
**A.** 91%

**Q.** What about the protease activity (Savinase; base formulation I., 3 d) of the same compound?
**A.** 84%

**Q.** What about the protease activity (Savinase; base formulation I., 6 d) of the same compound?
**A.** 66%

**Q.** What about the protease activity (Savinase; base formulation I., 10 d) of the same compound?
**A.** 49%

**Q.** And the protease activity (Savinase; base formulation I., 15 d)?
**A.** 38%

**Q.** What about the protease activity (Savinase; base formulation I., 20 d) of the same compound?
**A.** 30%

**Q.** And the protease activity (Savinase; base formulation I., 25 d)?
**A.** 23%

**Q.** And the protease activity (Savinase; base formulation I., 30 d)?
**A.** 10%

**Q.** What about the protease activity (Savinase; base formulation I., T0) of the same compound?
**A.** 98%

**Q.** What does the source list for `C[N+](C)(C)CCO.C[N+](C)(C)CCO.O=C([O-])CC(O)(CC(=O)O)C(=O)[O-]` [C-(A.17)]?
**A.** lipase activity (Lipolase; [1]): 90%; lipase activity (Lipolase; [2]): 80%; lipase activity (Lipolase; [3]): 70%; lipase activity (Lipolase; [4]): 53%; lipase activity (Lipolase; [5]): 42%; lipase activity (Lipolase; [6]): 38%; lipase activity (Lipolase; [7]): 33%; lipase activity (Lipolase; [8]): 29%; lipase activity (Lipolase; [9]): 97%; lipase activity (Lipolase; [10]): 93%; lipase activity (Lipolase; [11]): 86%; lipase activity (Lipolase; [12]): 74%; lipase activity (Lipolase; [13]): 63%; lipase activity (Lipolase; [14]): 51%; lipase activity (Lipolase; [15]): 46%; lipase activity (Lipolase; [16]): 38%; lipase activity (Lipolase; [17]): 33%; lipase activity (Lipolase; [18]): 96%; protease activity (Savinase; base formulation I., 1 d): 90%; protease activity (Savinase; base formulation I., 3 d): 81%; protease activity (Savinase; base formulation I., 6 d): 70%; protease activity (Savinase; base formulation I., 10 d): 49%; protease activity (Savinase; base formulation I., 15 d): 38%; protease activity (Savinase; base formulation I., 20 d): 30%; protease activity (Savinase; base formulation I., 25 d): 23%; protease activity (Savinase; base formulation I., 30 d): 12%; protease activity (Savinase; base formulation I., T0): 98%; protease activity (Savinase; base formulation III., 1 d): 94%; protease activity (Savinase; base formulation III., 3 d): 83%; protease activity (Savinase; base formulation III., 6 d): 71%; protease activity (Savinase; base formulation III., 10 d): 53%; protease activity (Savinase; base formulation III., 15 d): 42%; protease activity (Savinase; base formulation III., 20 d): 34%; protease activity (Savinase; base formulation III., 25 d): 27%; protease activity (Savinase; base formulation III., 30 d): 14%; protease activity (Savinase; base formulation III., T0): 92%
